# Measurements from ChEMBL document CHEMBL1140630, “Resisting degradation by human elastase: commonality of design features shared by 'canonical' plant and bacterial macrocyclic protease inhibitor scaffolds” (Bioorg Med Chem, 2007).
# pKi: −log10 of the molar value. Bridge positions count the residues as written; N and C are the ends. Peptide text beside a SMILES is read from it.
# How the values were obtained:
# [1] = Inhibition of chymotrypsin
# [2] = Inhibition of subtilisin BPN
# Pancreatic elastase = Pancreatic elastase (Sus scrofa, UniProt P08419+P00772); assay: Inhibition of porcine pancreatic elastase; type: protein assay
# [3] = Inhibition of trypsin
compound,measurement,setting,value
"CSCC[C@@H]1NC(=O)[C@@H](NC(=O)[C@H](C)NC(=O)[C@@H](N)Cc2ccccc2)[C@@H](C)OC(=O)C[C@@H]2NC(=O)[C@H](COC(=O)C[C@@H](C(=O)N[C@@H](CCC(=O)O)C(=O)O)NC(=O)[C@H](CO)NC2=O)NC(=O)[C@@H]2CCCN2C(=O)[C@H](Cc2ccc(O)cc2)NC(=O)[C@H](CCCNC(=N)N)NC1=O [MARINOSTATIN] (H-FATMRYPSDSDE-OH; ester 3-9, 8-11)",pKi,[1],6.52
same,pKi,[2],8.82
C/C=C1\NC(=O)[C@H]2NC(=O)[C@@H](NC(=O)C(C)C)CCCNC(=O)Nc3cc(O)c(O)cc3C[C@@H](C(=O)N[C@@H](C(C)C)C(=O)O[C@H]2C)N(C)C(=O)[C@H](Cc2ccccc2)N2C(=O)[C@H](CC[C@H]2O)NC1=O,IC50,Pancreatic elastase,260 nM
CC(C)C[C@@H](NC(=O)[C@H](O)COS(=O)(=O)O)C(=O)N[C@@H]1C(=O)N[C@@H](CCCNC(=N)N)C(=O)N[C@H]2CC[C@@H](O)N(C2=O)[C@@H](CC(C)C)C(=O)N(C)[C@@H](Cc2ccc(O)cc2)C(=O)N[C@@H](C(C)C)C(=O)O[C@@H]1C,pKi,[3],8.05
CCCC(=O)N[C@@H](C)C(=O)N[C@H](C(=O)N[C@@H]1C(=O)N[C@@H](CC(C)C)C(=O)N[C@@H]2CC[C@H](O)N(C2=O)[C@@H](C(C)O)C(=O)N[C@@H](Cc2ccc(O)c(Cl)c2)C(=O)N[C@@H](C(C)C)C(=O)O[C@H]1C)[C@@H](C)O (stereo not given in full) [SCYPTOLIN A],IC50,Pancreatic elastase,160 nM
